Laboratory results published in ChEMBL document CHEMBL3627685, “Identification of a molecular target of kurahyne, an apoptosis-inducing lipopeptide from marine cyanobacterial assemblages” (Bioorg Med Chem Lett, 2015).
Calls of active or inactive are those of the source. The rule behind the calls is not given here. Starred links: 1 amine or outer side, 2 acyl side, 3 side chain; linkers in the order of their positions; H or OH if unused. Non-standard residues stand in square brackets, D forms with d. Residues, ends and D or L forms follow the SMILES beside them. *: point of attachment. X2 = O=C(O)c1cc(N*)ccc1-c1c2ccc(=O)cc-2oc2cc(O)ccc12; Pyrrolidine(2S-propanoyl) = CCC(=O)[C@@H]1CCCN1*; Biotin = O=C1N[C@H]2[C@H](CS[C@H]2CCCCC(=O)*)N1; X3 = C/C(=C\CCCc1cn(CCCN[*:1])nn1)C(=O)[*:2]; NMeI = CC[C@H](C)[C@H](NC)C(=O)O; PEG4 = NCCOCCOCCOCCOCCC(=O)O; NMeV = CN[C@H](C(=O)O)C(C)C; CO = O=C([*:1])[*:2]

Legend:
HCT-116 = experiment: Cytotoxicity against human HCT116 cells assessed as growth inhibition by sulforhodamine B assay; format: functional
KM12 = experiment: Cytotoxicity against human KM12 cells assessed as growth inhibition by sulforhodamine B assay; format: functional
St-4 = experiment: Cytotoxicity against human St-4 cells assessed as growth inhibition by sulforhodamine B assay; format: functional
MCF7 = experiment: Cytotoxicity against human MCF7 cells assessed as growth inhibition by sulforhodamine B assay; format: functional
SF-539 = experiment: Cytotoxicity against human SF539 cells assessed as growth inhibition by sulforhodamine B assay; format: functional
NCI-H23 = experiment: Cytotoxicity against human NCI-H23 cells assessed as growth inhibition by sulforhodamine B assay; format: functional
SNB-75 = experiment: Cytotoxicity against human SNB75 cells assessed as growth inhibition by sulforhodamine B assay; format: functional
[1] = Cytotoxicity against human HBC5 cells assessed as growth inhibition by sulforhodamine B assay; format: functional
SF-295 = experiment: Cytotoxicity against human SF295 cells assessed as growth inhibition by sulforhodamine B assay; format: functional
NCI-H460 = experiment: Cytotoxicity against human NCI-H460 cells assessed as growth inhibition by sulforhodamine B assay; format: functional
[2] = Cytotoxicity against human MKN74 cells assessed as growth inhibition by sulforhodamine B assay; format: functional; details: MKN-74
HeLa [3] = experiment: Induction of endoplasmic reticulum stress in human HeLa cells assessed as upregulation of Bip mRNA expression at 10 uM after 6 hrs by RT-PCR analysis; format: functional, cell-based
[4] = Cytotoxicity against human RXF631L cells assessed as growth inhibition by sulforhodamine B assay; format: functional; details: RXF 631
[5] = Cytotoxicity against human SNB78 cells assessed as growth inhibition by sulforhodamine B assay; format: functional; details: SNB-78
NCI-H522 = experiment: Cytotoxicity against human NCI-H522 cells assessed as growth inhibition by sulforhodamine B assay; format: functional
SF-268 = experiment: Cytotoxicity against human SF268 cells assessed as growth inhibition by sulforhodamine B assay; format: functional
[6] = Cytotoxicity against human MKN1 cells assessed as growth inhibition by sulforhodamine B assay; format: functional; details: MKN-1
HL-60 = experiment: Cytotoxicity against human HL60 cells assessed as growth inhibition after 72 hrs by MTT assay; format: functional, cell-based; details: HL-60, 72 h
HeLa [7] = experiment: Cytotoxicity against human HeLa cells assessed as growth inhibition after 72 hrs by MTT assay; format: functional, cell-based
OVCAR-4 = experiment: Cytotoxicity against human OVCAR4 cells assessed as growth inhibition by sulforhodamine B assay; format: functional
DU-145 = experiment: Cytotoxicity against human DU145 cells assessed as growth inhibition by sulforhodamine B assay; format: functional
[8] = Cytotoxicity against human DMS114 cells assessed as growth inhibition by sulforhodamine B assay; format: functional; details: DMS-114
[9] = Cytotoxicity against human DMS273 cells assessed as growth inhibition by sulforhodamine B assay; format: functional; details: DMS-273
[10] = target: Sarcoplasmic/endoplasmic reticulum calcium ATPase 1 (Oryctolagus cuniculus) (UniProt P04191); experiment: Inhibition of ATPase activity of SERCA1a in rabbit sarcoplasmic reticulum vesicles measured for 3 mins by lactate dehydrogenase/pyruvate kinase coupled assay
HCT-15 = experiment: Cytotoxicity against human HCT15 cells assessed as growth inhibition by sulforhodamine B assay; format: functional
[11] = Cytotoxicity against human MKN28 cells assessed as growth inhibition by sulforhodamine B assay; format: functional; details: MKN-28
ACHN = experiment: Cytotoxicity against human ACHN cells assessed as growth inhibition by sulforhodamine B assay; format: functional
[12] = Cytotoxicity against human BSY1 cells assessed as growth inhibition by sulforhodamine B assay; format: functional; details: BSY-1
OVCAR-3 = experiment: Cytotoxicity against human OVCAR3 cells assessed as growth inhibition by sulforhodamine B assay; format: functional
MDA-MB-231 = experiment: Cytotoxicity against human MDA-MB-231 cells assessed as growth inhibition by sulforhodamine B assay; format: functional
LOX IMVI = experiment: Cytotoxicity against human LOXIMVI cells assessed as growth inhibition by sulforhodamine B assay; format: functional
NCI-H226 = experiment: Cytotoxicity against human NCI-H226 cells assessed as growth inhibition by sulforhodamine B assay; format: functional
HT-29 = experiment: Cytotoxicity against human HT-29 cells assessed as growth inhibition by sulforhodamine B assay; format: functional
[13] = Cytotoxicity against mouse BMDM assessed as growth inhibition after 72 hrs by MTT assay
U-251 = experiment: Cytotoxicity against human U251 cells assessed as growth inhibition by sulforhodamine B assay; format: functional
OVCAR-8 = experiment: Cytotoxicity against human OVCAR8 cells assessed as growth inhibition by sulforhodamine B assay; format: functional
[14] = Cytotoxicity against human MKN7 cells assessed as growth inhibition by sulforhodamine B assay; format: functional; details: MKN-7
HCC 2998 = experiment: Cytotoxicity against human HCC2998 cells assessed as growth inhibition by sulforhodamine B assay; format: functional
OVCAR-5 = experiment: Cytotoxicity against human OVCAR5 cells assessed as growth inhibition by sulforhodamine B assay; format: functional
[15] = Cytotoxicity against human MKN45 cells assessed as growth inhibition by sulforhodamine B assay; format: functional; details: MKN-45
PC-3 = experiment: Cytotoxicity against human PC3 cells assessed as growth inhibition by sulforhodamine B assay; format: functional
SK-OV-3 = experiment: Cytotoxicity against human SKOV3 cells assessed as growth inhibition by sulforhodamine B assay; format: functional
HeLa S3 [16] = experiment: Induction of Ca2+ release from endoplasmic reticulum into cytosol in human HeLaS3 cells by fura-2/AM-based spectrofluorometric analysis; format: functional, cell-based
HeLa [17] = experiment: Induction of endoplasmic reticulum stress in human HeLa cells assessed as upregulation of CHOP mRNA expression at 10 uM after 6 hrs by RT-PCR analysis; format: functional, cell-based
A549 = experiment: Cytotoxicity against human A549 cells assessed as growth inhibition by sulforhodamine B assay; format: functional
[18] = Cytotoxicity against human HBC4 cells assessed as growth inhibition by sulforhodamine B assay; format: functional
HeLa [19] = experiment: Binding affinity to SERCA in human HeLa cells at […] after 12 hrs by immunoblot analysis; format: cell-based
[20] = Drug uptake in endoplasmic reticulum in human HeLa cells at 10 uM after 6 hrs by DsRed/DAPI dye-based fluorescence microscopic analysis; format: ADME, cell-based
HeLa [21] = experiment: Induction of endoplasmic reticulum stress in human HeLa cells assessed as upregulation of Bip mRNA expression at 100 uM after 6 hrs by RT-PCR analysis; format: functional, cell-based
HeLa [22] = experiment: Induction of endoplasmic reticulum stress in human HeLa cells assessed as upregulation of CHOP mRNA expression at 1 uM after 6 hrs by RT-PCR analysis; format: functional, cell-based
[23] = target: Sarcoplasmic/endoplasmic reticulum calcium ATPase 1 (Oryctolagus cuniculus) (UniProt P04191); experiment: Inhibition of ATPase activity of SERCA1a in rabbit sarcoplasmic reticulum vesicles at 30 uM measured for 3 mins by lactate dehydrogenase/pyruvate kinase coupled assay
HeLa [24] = experiment: Induction of endoplasmic reticulum stress in human HeLa cells assessed as upregulation of Bip mRNA expression at 1 uM after 6 hrs by RT-PCR analysis; format: functional, cell-based
HeLa S3 [25] = experiment: Induction of Ca2+ release from endoplasmic reticulum into cytosol in human HeLaS3 cells at 1 uM by fura-2/AM-based spectrofluorometric analysis; format: functional, cell-based
HeLa S3 [26] = experiment: Induction of Ca2+ release from endoplasmic reticulum into cytosol in human HeLaS3 cells at 10 uM by fura-2/AM-based spectrofluorometric analysis; format: functional, cell-based

Sarcoplasmic/endoplasmic reticulum calcium ATPase 1 (Oryctolagus cuniculus), sequence (P04191 whole entry): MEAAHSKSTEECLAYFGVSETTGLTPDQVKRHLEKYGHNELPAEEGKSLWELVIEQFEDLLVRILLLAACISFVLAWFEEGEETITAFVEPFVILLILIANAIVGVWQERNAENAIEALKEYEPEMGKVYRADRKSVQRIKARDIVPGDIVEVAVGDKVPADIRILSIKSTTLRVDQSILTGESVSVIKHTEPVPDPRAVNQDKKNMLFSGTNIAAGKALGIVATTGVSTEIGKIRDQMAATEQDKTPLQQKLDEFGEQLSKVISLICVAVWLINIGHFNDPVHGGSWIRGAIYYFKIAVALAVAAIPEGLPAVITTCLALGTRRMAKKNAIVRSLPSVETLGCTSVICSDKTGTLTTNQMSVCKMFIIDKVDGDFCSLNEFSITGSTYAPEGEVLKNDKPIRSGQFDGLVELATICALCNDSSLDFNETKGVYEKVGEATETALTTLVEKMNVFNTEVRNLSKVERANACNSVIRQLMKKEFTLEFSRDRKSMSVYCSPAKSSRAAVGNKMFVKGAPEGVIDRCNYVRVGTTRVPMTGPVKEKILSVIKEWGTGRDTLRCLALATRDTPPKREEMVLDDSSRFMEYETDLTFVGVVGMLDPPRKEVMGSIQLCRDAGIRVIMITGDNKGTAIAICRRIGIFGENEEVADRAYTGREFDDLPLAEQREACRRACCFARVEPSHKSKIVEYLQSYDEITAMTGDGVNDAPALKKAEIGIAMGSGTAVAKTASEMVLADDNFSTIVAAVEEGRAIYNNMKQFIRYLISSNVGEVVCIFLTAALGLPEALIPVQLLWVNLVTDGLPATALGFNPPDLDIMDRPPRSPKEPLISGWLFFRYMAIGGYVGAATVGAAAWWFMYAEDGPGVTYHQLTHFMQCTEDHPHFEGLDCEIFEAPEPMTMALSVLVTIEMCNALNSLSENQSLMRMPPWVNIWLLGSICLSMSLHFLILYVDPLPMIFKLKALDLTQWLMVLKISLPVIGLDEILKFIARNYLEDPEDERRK

C#CCCC/C=C(\C)C(=O)N(C)[C@H](C(=O)N(C)[C@H](C(=O)N(C)[C@H](C(=O)N(C)[C@H](C(=O)N1CCC[C@H]1C(=O)N1CCC[C@H]1C(=O)CC)C(C)C)C(C)C)[C@@H](C)CC)[C@@H](C)CC (HELM PEPTIDE1{[C#CCCC/C=C(\C)C(=O)[*:2]].[meI].[meI].[meV].[meV].P.[CCC(=O)[C@@H]1CCCN1[*:1]]}$$$$V2.0)
GI50 (HCT-116): 5.13 µM | GI50 (KM12): 12.9 µM | GI50 (St-4): 13.2 µM | GI50 (MCF7): 3.98 µM | GI50 (SF-539): 10 µM | GI50 (NCI-H23): 13.8 µM | GI50 (SNB-75): 14.5 µM | GI50 [1]: 10.5 µM | GI50 (SF-295): 10.7 µM | GI50 (NCI-H460): 9.55 µM | GI50 [2]: 3.72 µM | Activity (HeLa [3]): Active | GI50 [4]: 5.89 µM | GI50 [5]: 16.6 µM | GI50 (NCI-H522): 2.4 µM | GI50 (SF-268): 5.62 µM | GI50 [6]: 15.1 µM | IC50 (HL-60): 1.5 µM | IC50 (HeLa [7]): 3.9 µM | GI50 (OVCAR-4): 11 µM | GI50 (DU-145): 13.8 µM | GI50 [8]: 4.9 µM | GI50 [9]: 5.5 µM | inhibition [10]: Dose-dependent effect | GI50 (HCT-15): 11.5 µM | GI50 [11]: 12.9 µM | GI50 (ACHN): 13.5 µM | GI50 [12]: 3.09 µM | GI50 (OVCAR-3): 6.61 µM | GI50 (MDA-MB-231): 4.17 µM | GI50 (LOX IMVI): 3.89 µM | GI50 (NCI-H226): 7.24 µM | GI50 (HT-29): 4.47 µM | IC50 [13]: 1.96 µM | GI50 (U-251): 8.32 µM | GI50 (OVCAR-8): 14.5 µM | GI50 [14]: 7.41 µM | GI50 (HCC 2998): 14.8 µM | GI50 (OVCAR-5): 11.2 µM | GI50 [15]: 7.94 µM | GI50 (PC-3): 4.47 µM | GI50 (SK-OV-3): 11.2 µM | Activity (HeLa S3 [16]): Dose-dependent effect | Activity (HeLa [17]): Active | GI50 (A549): 7.24 µM | GI50 [18]: 12.3 µM

CCC(=O)[C@@H]1CCCN1C(=O)[C@@H]1CCCN1C(=O)[C@H](C(C)C)N(C)C(=O)[C@H](C(C)C)N(C)C(=O)[C@H]([C@@H](C)CC)N(C)C(=O)[C@H]([C@@H](C)CC)N(C)C(=O)/C(C)=C/CCCc1cn(CCCNC(=O)CCOCCOCCOCCOCCNC(=O)CCCC[C@@H]2SC[C@@H]3NC(=O)N[C@@H]32)nn1 ({Biotin-PEG4}-[X3][NMeI][NMeI][NMeV][NMeV]P-{Pyrrolidine(2S-propanoyl)})
Activity (HeLa [19]): Active

CCC(=O)[C@@H]1CCCN1C(=O)[C@@H]1CCCN1C(=O)[C@H](C(C)C)N(C)C(=O)[C@H](C(C)C)N(C)C(=O)[C@H]([C@@H](C)CC)N(C)C(=O)[C@H]([C@@H](C)CC)N(C)C(=O)/C(C)=C/CCCc1cn(CCCNC(=O)Nc2ccc(-c3c4ccc(=O)cc-4oc4cc(O)ccc34)c(C(=O)O)c2)nn1 ({X2-CO}-[X3][NMeI][NMeI][NMeV][NMeV]P-{Pyrrolidine(2S-propanoyl)})
Drug uptake [20]: Active | Activity (HeLa [21]): Active

C/C=C(/C)C(=O)O[C@H]1C(C)=C2[C@H]([C@@H]1OC(=O)CCCCCCC)[C@@](C)(OC(C)=O)C[C@H](OC(=O)CCC)[C@@]1(O)[C@H]2OC(=O)[C@@]1(C)O
Activity (HeLa [22]): Active | inhibition [23]: Active | Activity (HeLa [24]): Active | Activity (HeLa S3 [25]): Active

C#CCCC/C=C(\C)C(=O)N(C)[C@H](C(=O)N(C)[C@H](C(=O)N(C)[C@H](C(=O)N(C)[C@H](C(=O)N1CCC[C@H]1C(=O)N1CCC[C@H]1/C(CC)=N/OCC(=O)NCCCCCNC(=S)Nc1ccc(-c2c3ccc(=O)cc-3oc3cc(O)ccc23)c(C(=O)O)c1)C(C)C)C(C)C)[C@@H](C)CC)[C@@H](C)CC
Activity (HeLa [21]): inactive

CC(=O)C1=C(O)[C@@H]2[C@H]3c4c[nH]c5cccc(c45)C[C@H]3C(C)(C)N2C1=O
Activity (HeLa S3 [26]): Active
